Experimental data published in patent publication US4393228A, “Epoxysuccinic acid derivatives” (Taisho Pharmaceutical Co., Ltd., priority 1977, dated 1983).

Biological target: T1, papain (Carica papaya, UniProt P00784)
T1 construct: purchased Sigma Chem. Co
T1 sequence (P00784 134-345): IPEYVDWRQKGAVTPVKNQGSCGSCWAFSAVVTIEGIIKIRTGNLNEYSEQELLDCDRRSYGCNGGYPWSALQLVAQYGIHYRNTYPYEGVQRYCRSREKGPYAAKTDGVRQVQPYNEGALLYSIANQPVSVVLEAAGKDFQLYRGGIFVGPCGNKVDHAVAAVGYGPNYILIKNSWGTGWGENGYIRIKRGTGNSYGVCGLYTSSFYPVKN
Test: Papain inhibitory activity (milk casein digestion)
Format: biochemical
Details: papain 80 μg/ml 0.5 ml, cysteine, pH 6.8, 1% milk casein, 40° C., 10 minutes
Summary of the method: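 Papain (80 μg/ml stock) preincubated 15 min at 40 °C with inhibitor, cysteine/EDTA activator and phosphate buffer pH 6.8. Then 1% milk casein digested 10 min at 40 °C, stopped with trichloroacetic acid and filtered; filtrate absorbance at 280 nm gives percent inhibition versus no-inhibitor control.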

| Structure (SMILES) | ID50 (amount of inhibitor for 50% inhibition) |
| --- | --- |
| O=C(O)[C@H]1O[C@@H]1C(=O)OCCCc1ccccc1 (relative stereo) [EP-132, 3'-phenylpropyl potassium epoxysuccinate] | 0.17 γ |
| O=C(OCC=Cc1ccccc1)[C@H]1O[C@@H]1C(=O)OCC=Cc1ccccc1 (relative stereo) [EP-133, di-3'-phenyl-2'-propenyl epoxysuccinate] | 2.81 γ |
| O=C(O)[C@H]1O[C@@H]1C(=O)OCC=Cc1ccccc1 (relative stereo) [EP-134, 3'-phenyl-2'-propenyl potassium epoxysuccinate] | 0.71 γ |
| COC(=O)[C@H]1O[C@@H]1C(=O)O (relative stereo) [EP-135, methyl hydrogen epoxysuccinate] | 12.20 γ |
| O=C(O)[C@H]1O[C@@H]1C(=O)Oc1ccccc1 (relative stereo) [EP-136, phenyl hydrogen epoxysuccinate] | 2.72 γ |
| CCCOC(=O)[C@H]1O[C@@H]1C(=O)O (relative stereo) [EP-138, n-propyl potassium epoxysuccinate] | 0.82 γ |
| CC(C)OC(=O)[C@H]1O[C@@H]1C(=O)O (relative stereo) [EP-139, i-propyl potassium epoxysuccinate] | 0.78 γ |
| C=CCOC(=O)[C@H]1O[C@@H]1C(=O)O (relative stereo) [EP-140, allyl potassium epoxysuccinate] | 0.92 γ |
| C#CCOC(=O)[C@H]1O[C@@H]1C(=O)O (relative stereo) [EP-141, propargyl potassium epoxysuccinate] | 1.45 γ |
| CCCCOC(=O)[C@H]1O[C@@H]1C(=O)O (relative stereo) [EP-142, n-butyl potassium epoxysuccinate] | 0.29 γ |
| CCCCCCCCCCCCOC(=O)[C@H]1O[C@@H]1C(=O)O (relative stereo) [EP-145, n-dodecyl potassium epoxysuccinate] | 0.14 γ |
| CCCOC(=O)[C@H]1O[C@@H]1C(=O)NCC(=O)OCc1ccccc1 (relative stereo) [EP-153, N-(3-n-propyloxycarbonyloxirane-2-carbonyl)-glycine benzyl ester] | 17.90 γ |
| CCOC(=O)[C@H]1O[C@@H]1C(=O)NCC(=O)OCc1ccccc1 (relative stereo) [EP-154, N-(3-ethoxycarbonyloxirane-2-carbonyl)-glycine benzyl ester] | 43.90 γ |
| CCOC(=O)[C@H]1O[C@@H]1C(=O)NCCC(=O)OCc1ccccc1 (relative stereo) [EP-157, N-(3-ethoxycarbonyloxirane-2-carbonyl)-β-alanine benzyl ester] | 71.50 γ |
| CCOC(=O)CCCNC(=O)[C@@H]1O[C@H]1C(=O)OCc1ccc(Cl)cc1 (relative stereo) [EP-189, N-(3-p-chlorobenzyloxycarbonyloxirane-2-carbonyl)-γ-aminobutylic acid ethyl ester] | 10.58 γ |
| O=C(CNC(=O)[C@@H]1O[C@H]1C(=O)OCCC1CCCCC1)OCc1ccccc1 (relative stereo) [EP-207, N-[3-(2'-cyclohexylethoxy)-carbonyloxirane-2-carbonyl]-glycine benzyl ester] | 6.52 γ |
| O=C(CCNC(=O)[C@@H]1O[C@H]1C(=O)OCCCCC1CCCCC1)OCc1ccccc1 (relative stereo) [EP-208, N-[3-(4'-cyclohexylbutoxy)-carbonyloxirane-2-carbonyl]-β-alanine benzyl ester] | 13.12 γ |
| CCOC(=O)CNC(=O)[C@@H]1O[C@H]1C(=O)OCc1ccc2c(Br)cccc2c1 (relative stereo) [EP-220, N-[3-(5'-bromo-2-naphthylmethoxy)-carbonyloxirane-2-carbonyl]-glycine ethyl ester] | 9.86 γ |
| O=C(OC1CCCC(Br)C1)C1OC1C(=O)OC1CCCC(Br)C1 (stereo not drawn) [EP-9, di-3'-cis-bromocyclohexyl epoxysuccinate] | 2.20 γ |
| O=C(O)C1OC1C(=O)OC1CCCC(Br)C1 (stereo not drawn) [EP-10, 3'-cis-bromocyclohexyl potassium epoxysuccinate] | 0.06 γ |
| O=C(OC1CC(Cl)CCC1Br)C1OC1C(=O)OC1CC(Cl)CCC1Br (stereo not drawn) [EP-11, di-2'-cis-bromo-5'-trans-chlorocyclohexyl epoxysuccinate] | 2.50 γ |
| O=C(O)C1OC1C(=O)OC1CC(Cl)CCC1Br (stereo not drawn) [EP-12, 2'-cis-bromo-5'-trans-chlorocyclohexyl potassium epoxysuccinate] | 0.07 γ |
| CC1CCCC(C)C1OC(=O)C1OC1C(=O)OC1C(C)CCCC1C (stereo not drawn) [EP-13, di-2',6'-trans-dimethylcyclohexyl epoxysuccinate] | 2.50 γ |
| CC1CCCC(C)C1OC(=O)C1OC1C(=O)O (stereo not drawn) [EP-14, 2',6'-trans-dimethylcyclohexyl potassium epoxysuccinate] | 0.10 γ |

| Structure (SMILES) | ID50 (amount of inhibitor for 50% inhibition) |
| --- | --- |
| O=C(OC1CCC(Br)C(Cl)C1)C1OC1C(=O)OC1CCC(Br)C(Cl)C1 (stereo not drawn) [EP-21, di-3'-cis-chloro-trans-4'-bromocyclohexyl epoxysuccinate] | 2.46 γ |
| O=C(O)C1OC1C(=O)OC1CCC(Br)C(Cl)C1 (stereo not drawn) [EP-22, 3'-cis-chloro-4'-trans-bromocyclohexyl potassium epoxysuccinate] | 0.12 γ |
| O=C(OC1CC(Cl)CC(Cl)C1)C1OC1C(=O)OC1CC(Cl)CC(Cl)C1 (stereo not drawn) [EP-23, di-3',5'-trans-dichlorocyclohexyl epoxysuccinate] | 2.45 γ |
| O=C(O)C1OC1C(=O)OC1CC(Cl)CC(Cl)C1 (stereo not drawn) [EP-24, 3',5'-trans-dichlorocyclohexyl potassium epoxysuccinate] | 0.09 γ |
| O=C(OC1CCC(Cl)C1)C1OC1C(=O)OC1CCC(Cl)C1 (stereo not drawn) [EP-29, di-3'-cis-chlorocyclopentyl epoxysuccinate] | 3.12 γ |
| O=C(O)C1OC1C(=O)OC1CCC(Cl)C1 (stereo not drawn) [EP-30, 3'-cis-chlorocyclopentyl potassium epoxysuccinate] | 0.07 γ |
| CC1CCC(OC(=O)C2OC2C(=O)OC2CCC(C)C2)C1 (stereo not drawn) [EP-31, di-3'-trans-methylcyclopentyl epoxysuccinate] | 3.25 γ |
| CC1CCC(OC(=O)C2OC2C(=O)O)C1 (stereo not drawn) [EP-32, 3'-trans-methylcyclopentyl potassium epoxysuccinate] | 0.09 γ |
| CC(OC(=O)C1OC1C(=O)OC(C)C1CCCC1)C1CCCC1 (centres unmarked) [EP-45, di-1-cyclopentaneethyl epoxysuccinate] | 0.23 γ |
| CC(OC(=O)C1OC1C(=O)O)C1CCCC1 (centres unmarked) [EP-46, 1-cyclopentaneethyl potassium epoxysuccinate] | 0.08 γ |
| CC1(C)C2CCC1(C)C(OC(=O)C1OC1C(=O)OC1CC3CCC1(C)C3(C)C)C2 (centres unmarked) [EP-53, dibornyl epoxysuccinate] | 0.45 γ |
| CC1(C)C2CCC1(C)C(OC(=O)C1OC1C(=O)O)C2 (centres unmarked) [EP-54, bornyl potassium epoxysuccinate] | 0.09 γ |
| O=C(OC1CC2CCC1C2)C1OC1C(=O)OC1CC2CCC1C2 (centres unmarked) [EP-55, dinorbornyl epoxysuccinate] | 0.28 γ |
| O=C(O)C1OC1C(=O)OC1CC2CCC1C2 (centres unmarked) [EP-56, norbornyl potassium epoxysuccinate] | 0.06 γ |
| O=C(OC1CC2C=CC1C2)C1OC1C(=O)OC1CC2C=CC1C2 (centres unmarked) [EP-57, dinorbor-5-en-2-yl epoxysuccinate] | 0.26 γ |
| O=C(O)C1OC1C(=O)OC1CC2C=CC1C2 (centres unmarked) [EP-58, norbor-5-en-2-yl potassium epoxysuccinate] | 0.07 γ |
| O=C(OCC1CC=CCC1)C1OC1C(=O)OCC1CC=CCC1 (centres unmarked) [EP-69, di-3-cyclohexenemethyl epoxysuccinate] | 0.23 γ |
| O=C(O)C1OC1C(=O)OCC1CC=CCC1 (centres unmarked) [EP-70, 3-cyclohexenemethylpotassium epoxysuccinate] | 0.08 γ |
| O=C(OCC1C=CCC1)C1OC1C(=O)OCC1C=CCC1 (centres unmarked) [EP-71, di-2-cyclopentenemethyl epoxysuccinate] | 0.40 γ |
| O=C(O)C1OC1C(=O)OCC1C=CCC1 (centres unmarked) [EP-72, 2-cyclopentenemethyl potassium epoxysuccinate] | 0.08 γ |
| CCOC(=O)C1OC1C(=O)N[C@@H](CC(C)C)C(=O)OCC (stereo partly drawn) [EP-146, N-(3-ethoxycarbonyloxirane-2-carbonyl)-L-leucine ethyl ester] | 0.39 γ |
| C=CCOC(=O)C1OC1C(=O)N[C@@H](Cc1ccc(O)cc1)C(=O)OCc1ccccc1 (stereo partly drawn) [EP-147, N-(3-allyloxycarbonyloxirane-2-carbonyl)-L-tyrosine benzyl ester] | 3.40 γ |
| Cc1cccc(COC(=O)C2OC2C(=O)N[C@@H](Cc2ccc(O)cc2)C(=O)OCc2ccccc2)c1 (stereo partly drawn) [EP-148, N-(3-m-methylbenzyloxycarbonyloxirane-2-carbonyl)-L-tyrosine benzyl ester] | 0.70 γ |
